From patent US10316035B2, “Triazolopyridine inhibitors of myeloperoxidase” (BRISTOL-MYERS SQUIBB COMPANY, priority 2015, dated 2019)
Like-named read-outs stand apart in the source and are kept apart here.

Target: T1, myeloperoxidase (MPO) (Homo sapiens, UniProt P05164)
T1 sequence (P05164 49-745): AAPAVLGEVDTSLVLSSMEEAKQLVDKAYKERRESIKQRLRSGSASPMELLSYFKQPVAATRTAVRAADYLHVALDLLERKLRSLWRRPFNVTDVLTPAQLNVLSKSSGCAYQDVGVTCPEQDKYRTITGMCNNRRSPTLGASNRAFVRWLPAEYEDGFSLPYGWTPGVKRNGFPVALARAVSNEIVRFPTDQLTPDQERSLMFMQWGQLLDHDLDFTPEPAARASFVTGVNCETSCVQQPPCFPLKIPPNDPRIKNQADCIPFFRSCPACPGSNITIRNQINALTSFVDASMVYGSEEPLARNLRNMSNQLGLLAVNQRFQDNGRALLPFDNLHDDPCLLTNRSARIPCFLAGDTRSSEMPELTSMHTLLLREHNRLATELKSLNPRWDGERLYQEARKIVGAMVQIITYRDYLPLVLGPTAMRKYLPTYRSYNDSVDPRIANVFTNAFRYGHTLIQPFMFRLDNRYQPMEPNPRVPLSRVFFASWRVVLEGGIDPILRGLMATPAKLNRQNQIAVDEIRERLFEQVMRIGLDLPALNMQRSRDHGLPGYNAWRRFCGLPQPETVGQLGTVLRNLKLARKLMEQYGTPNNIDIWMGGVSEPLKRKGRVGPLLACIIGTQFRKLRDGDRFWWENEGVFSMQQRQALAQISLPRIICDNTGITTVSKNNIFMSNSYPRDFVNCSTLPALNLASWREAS
Assay: MPO peroxidation assay (Amplex Red assay)
Assay type: biochemical
Description: MPO Peroxidation Assay (Amplex Red Assay)
MPO peroxidation activity was measured in 100 mM KPi (pH 7.4) by utilizing the non-fluorescent reagent Amplex Red (Invitrogen catalog # A12222) which can be oxidized to the highly fluorescent resorufin. Amplex Red is oxidized by the peroxidase action of MPO to resorufin. Reactions were carried out in 50 μL total volume by adding a 25 μL mixture of 200 pM myeloperoxidase and 40 nM H2O2(Sigma #349887) to 100 nL inhibitor in 100% DMSO in a 384 well Perkin Elmer Optiplate. Enzyme and compound were preincubated for ten minutes at room temperature.
After the ten minute preincubation, 25 μL of an Amplex Red mixture containing 200 μM Amplex Red and 10 mM H2O2 was added to the plate. Kinetic determinations were carried out immediately on a Perkin Elmer Envision (15 minute kinetic read, Ex: 535 nm, Em: 590 nm).
IC50 values were calculated by determining the slope of the linear portion of the kinetic trace ([…]), and using that calculated slope to determine % inhibition occurring at each concentration of inhibitor using the following equation:
[formula] where A=minimal Y value (activity level of inhibited sample), B=maximal Y value (activity level of uninhibited sample), C=Log IC50, D=Hill Slope, x=concentration of inhibitor. MPO Chlorination Assay (APF Assay)

[1] = MPO peroxidation, potency range class, read-out: Amplex Red IC50

Row | SMILES | IC50 [1] | IC50
1 | Nc1cc(OCC2CCc3ccccc3C2)c2nn[nH]c2n1 (centres unmarked) [Example 51, 7-((1,2,3,4-Tetrahydronaphthalen-2-yl)methoxy)-3H-[1,2,3]triazolo[4,5-b]pyridin-5-amine] | 101 to 999 nM | –
2 | CC1CC(c2ccccc2)CCC1COc1cc(N)nc2[nH]nnc12 (centres unmarked) [Example 53, 7-((2-Methyl-4-phenylcyclohexyl)methoxy)-3H-[1,2,3]triazolo[4,5-b]pyridin-5-amine] | 101 to 999 nM | –
3 | Nc1cc(OCc2ccccc2F)c2nn[nH]c2n1 [Example 55, 7-(2-Fluorobenzyloxy)-3H-[1,2,3]triazolo[4,5-b]pyridin-5-amine] | – | 1 to 100 nM
4 | NC(=O)c1cccc(COc2cc(N)nc3[nH]nnc23)c1 [Example 56, 3-((5-Amino-3H-[1,2,3]triazolo[4,5-b]pyridin-7-yloxy)methyl)benzamide] | 101 to 999 nM | –
5 | COc1ccc(-c2cccc(COc3cc(N)nc4[nH]nnc34)c2)c(F)c1 [Example 64, 7-((2′-Fluoro-4′-methoxybiphenyl-3-yl)methoxy)-3H-[1,2,3]triazolo[4,5-b]pyridin-5-amine] | 101 to 999 nM | –
6 | COc1c(COc2cc(N)nc3[nH]nnc23)cccc1-c1cccc(F)c1 [Example 67, 7-((3′-Fluoro-2-methoxybiphenyl-3-yl)methoxy)-3H-[1,2,3]triazolo[4,5-b]pyridin-5-amine] | 101 to 999 nM | –
7 | Cc1c(COc2cc(N)nc3[nH]nnc23)cccc1-c1cccc(F)c1 [Example 68, 7-((3′-Fluoro-2-methylbiphenyl-3-yl)methoxy)-3H-[1,2,3]triazolo[4,5-b]pyridin-5-amine] | – | 1 to 100 nM
8 | Nc1cc(OCc2cc(-c3cccc(F)c3)ccc2Cl)c2nn[nH]c2n1 [Example 70, 7-((4-Chloro-3′-fluorobiphenyl-3-yl)methoxy)-3H-[1,2,3]triazolo[4,5-b]pyridin-5-amine] | – | 1 to 100 nM
9 | Nc1cc(OCc2cccc(-c3cnn(Cc4ccccc4)c3)c2)c2nn[nH]c2n1 [Example 74, 7-(3-(1-Benzyl-1H-pyrazol-4-yl)benzyloxy)-3H-[1,2,3]triazolo[4,5-b]pyridin-5-amine] | 1 to 100 nM | –
10 | Nc1cc(OCc2cccc(-c3ccn(Cc4ccccc4)n3)c2)c2nn[nH]c2n1 [Example 75, 7-(3-(1-Benzyl-1H-pyrazol-3-yl)benzyloxy)-3H-[1,2,3]triazolo[4,5-b]pyridin-5-amine] | 101 to 999 nM | –
11 | Cn1cc(-c2cccc(COc3cc(N)nc4[nH]nnc34)c2)cn1 [Example 77, 7-(3-(1-Methyl-1H-pyrazol-4-yl)benzyloxy)-3H-[1,2,3]triazolo[4,5-b]pyridin-5-amine] | – | 1 to 100 nM
12 | Cn1nccc1-c1cccc(COc2cc(N)nc3[nH]nnc23)c1 [Example 78, 7-(3-(1-Methyl-1H-pyrazol-5-yl)benzyloxy)-3H-[1,2,3]triazolo[4,5-b]pyridin-5-amine] | 1 to 100 nM | –
13 | Cn1nc(C(F)(F)F)cc1-c1cccc(COc2cc(N)nc3[nH]nnc23)c1 [Example 79, 7-(3-(1-Methyl-3-(trifluoromethyl)-1H-pyrazol-5-yl)benzyloxy)-3H-[1,2,3]triazolo[4,5-b]pyridin-5-amine] | 101 to 999 nM | –
14 | COc1c(COc2cc(N)nc3[nH]nnc23)cccc1-c1ccn(C)n1 [Example 80, 7-(2-Methoxy-3-(1-methyl-1H-pyrazol-3-yl)benzyloxy)-3H-[1,2,3]triazolo[4,5-b]pyridin-5-amine] | 101 to 999 nM | –
15 | Cc1c(COc2cc(N)nc3[nH]nnc23)cccc1-c1ccn(C)n1 [Example 81, 7-(2-Methyl-3-(1-methyl-1H-pyrazol-3-yl)benzyloxy)-3H-[1,2,3]triazolo[4,5-b]pyridin-5-amine] | – | 1 to 100 nM
16 | CC(C)Cn1cc(-c2ccc(F)c(COc3cc(N)nc4[nH]nnc34)c2)cn1 [Example 82, 7-(2-Fluoro-5-(1-isobutyl-1H-pyrazol-4-yl)benzyloxy)-3H-[1,2,3]triazolo[4,5-b]pyridin-5-amine] | 1 to 100 nM | –
17 | COc1ccc(-n2cncn2)cc1COc1cc(N)nc2[nH]nnc12 [Example 83, 7-(2-Methoxy-5-(1H-1,2,4-triazol-1-yl)benzyloxy)-3H-[1,2,3]triazolo[4,5-b]pyridin-5-amine] | 1 to 100 nM | –
18 | Cc1cn(-c2cccc(COc3cc(N)nc4[nH]nnc34)c2)cn1 [Example 84, 7-(3-(4-Methyl-1H-imidazol-1-yl)benzyloxy)-3H-[1,2,3]triazolo[4,5-b]pyridin-5-amine] | 101 to 999 nM | –
19 | Cc1ccn(-c2cccc(COc3cc(N)nc4[nH]nnc34)c2)n1 [Example 85, 7-(3-(3-Methyl-1H-pyrazol-1-yl)benzyloxy)-3H-[1,2,3]triazolo[4,5-b]pyridin-5-amine] | 101 to 999 nM | –
20 | Cc1c(COc2cc(N)nc3[nH]nnc23)cccc1-n1cncn1 [Example 86, 7-(2-Methyl-3-(1H-1,2,4-triazol-1-yl)benzyloxy)-3H-[1,2,3]triazolo[4,5-b]pyridin-5-amine] | 1 to 100 nM | –
21 | COc1ccc(-n2cnc(C)n2)cc1COc1cc(N)nc2[nH]nnc12 [Example 87, 7-(2-Methoxy-5-(3-methyl-1H-1,2,4-triazol-1-yl)benzyloxy)-3H-[1,2,3]triazolo[4,5-b]pyridin-5-amine] | 1000 to 10000 nM | –
22 | CCOc1ccc(Cl)cc1COc1cc(N)nc2[nH]nnc12 [Example 88, 7-(5-Chloro-2-ethoxybenzyloxy)-3H-[1,2,3]triazolo[4,5-b]pyridin-5-amine] | 1 to 100 nM | –

Next, values leading:

Row | IC50 [1] | IC50 | SMILES
23 | 1 to 100 nM | – | Nc1cc(OCc2cc(C(=O)NC3CC3)ccc2F)c2nn[nH]c2n1 [Example 48, 3-((5-Amino-3H-[1,2,3]triazolo[4,5-b]pyridin-7-yloxy)methyl)-N-cyclopropyl-4-fluorobenzamide]
24 | 1 to 100 nM | – | Nc1cc(OCc2cc(C(=O)Nc3cccc(Cl)c3)ccc2F)c2nn[nH]c2n1 [Example 49, 3-((5-Amino-3H-[1,2,3]triazolo[4,5-b]pyridin-7-yloxy)methyl)-N-(3-chlorophenyl)-4-fluorobenzamide]
25 | 1 to 100 nM | – | COc1ccc(Br)cc1COc1cc(N)nc2[nH]nnc12 [Example 58, 7-(5-Bromo-2-methoxybenzyloxy)-3H-[1,2,3]triazolo[4,5-b]pyridin-5-amine]
26 | 1 to 100 nM | – | COc1c(Br)cccc1COc1cc(N)nc2[nH]nnc12 [Example 59, 7-(3-Bromo-2-methoxybenzyloxy)-3H-[1,2,3]triazolo[4,5-b]pyridin-5-amine]
27 | 1 to 100 nM | – | Cc1c(Br)cccc1COc1cc(N)nc2[nH]nnc12 [Example 60, 7-(3-Bromo-2-methylbenzyloxy)-3H-[1,2,3]triazolo[4,5-b]pyridin-5-amine]
28 | 1 to 100 nM | – | Nc1cc(OCc2cccc(Br)c2F)c2nn[nH]c2n1 [Example 62, 7-(3-Bromo-2-fluorobenzyloxy)-3H-[1,2,3]triazolo[4,5-b]pyridin-5-amine]
29 | 1 to 100 nM | – | Cc1c(COc2cc(N)nc3[nH]nnc23)cccc1-c1cncc(F)c1 [Example 63, 7-(3-(5-Fluoropyridin-3-yl)-2-methylbenzyloxy)-3H-[1,2,3]triazolo[4,5-b]pyridin-5-amine]
30 | 1 to 100 nM | – | Cc1ccc(-c2cccc(F)c2)cc1COc1cc(N)nc2[nH]nnc12 [Example 65, 7-((3′-Fluoro-4-methylbiphenyl-3-yl)methoxy)-3H-[1,2,3]triazolo[4,5-b]pyridin-5-amine]
31 | 1 to 100 nM | – | COc1ccc(-c2cccc(F)c2)cc1COc1cc(N)nc2[nH]nnc12 [Example 66, 7-((3′-Fluoro-4-methoxybiphenyl-3-yl)methoxy)-3H-[1,2,3]triazolo[4,5-b]pyridin-5-amine]
32 | 1 to 100 nM | – | Cc1c(COc2cc(N)nc3[nH]nnc23)cccc1-c1ccccc1 [Example 69, 7-((2-Methylbiphenyl-3-yl)methoxy)-3H-[1,2,3]triazolo[4,5-b]pyridin-5-amine]
33 | 1 to 100 nM | – | Nc1cc(OCc2cc(-c3cccc(F)c3)ccc2F)c2nn[nH]c2n1 [Example 71, 7-((3′,4-Difluorobiphenyl-3-yl)methoxy)-3H-[1,2,3]triazolo[4,5-b]pyridin-5-amine]
34 | 1 to 100 nM | – | Nc1cc(OCc2cccc(-c3cccc(F)c3)c2F)c2nn[nH]c2n1 [Example 72, 7-((2,3′-Difluorobiphenyl-3-yl)methoxy)-3H-[1,2,3]triazolo[4,5-b]pyridin-5-amine]
35 | 1 to 100 nM | – | COc1ccccc1-c1ccc(F)c(COc2cc(N)nc3[nH]nnc23)c1F [Example 73, 7-((2,4-Difluoro-2′-methoxybiphenyl-3-yl)methoxy)-3H-[1,2,3]triazolo[4,5-b]pyridin-5-amine]
